Assay results reported in the supplement of paper PMC10307832.

What was measured:
Assay in all cases: relative viability (nuclei count vs DMSO), 5 days (fraction); higher = more cells survive
NCI-H2126 = test system: NCI-H2126
Summary of the method: (§1)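 One day after seeding in 1536-well plates, lung cancer cell lines were dosed by pin tool. Dosing was either single-drug or a fixed anchor-drug dose plus five library-drug doses (not always all listed) in √10 steps. After 5 days, nuclei were stained in one fix-and-stain step and counted on 4× images, and relative viability is the nuclei count of treated wells over that of vehicle wells, given as the median of duplicate plates.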

NCI-H1993 = test system: NCI-H1993
Summary of the method: as §1

NCI-H2342 = test system: NCI-H2342
Summary of the method: as §1

NCI-H2228 = test system: NCI-H2228
Summary of the method: as §1

NCI-H2170 = test system: NCI-H2170
Summary of the method: as §1

SK-LU-1 = test system: SK-LU-1
Summary of the method: as §1

ChaGo-K-1 = test system: ChaGo-K-1
Summary of the method: as §1

EPLC-272H = test system: EPLC-272H
Summary of the method: as §1

NCI-H2405 = test system: NCI-H2405
Summary of the method: as §1

NCI-H1975 = test system: NCI-H1975
Summary of the method: as §1

LCLC-103H = test system: LCLC-103H
Summary of the method: as §1

NCI-H460 = test system: NCI-H460
Summary of the method: as §1

EMC-BAC-2 = test system: EMC-BAC-2
Summary of the method: as §1

LCLC-97TM1 = test system: LCLC-97TM1
Summary of the method: as §1

NCI-H1395 = test system: NCI-H1395
Summary of the method: as §1

HOP-62 = test system: HOP-62
Summary of the method: as §1

NCI-H647 = test system: NCI-H647
Summary of the method: as §1

NCI-H322M = test system: NCI-H322M
Summary of the method: as §1

NCI-H3122 = test system: NCI-H3122
Summary of the method: as §1

NCI-H2085 = test system: NCI-H2085
Summary of the method: as §1

LOU-NH91 = test system: LOU-NH91
Summary of the method: as §1

NCI-H520 = test system: NCI-H520
Summary of the method: as §1

HCC-44 = test system: HCC-44
Summary of the method: as §1

Oc1nc(-c2ccc(C(F)(F)F)cc2)nc2c1CSCC2 [XAV939] + O=C(c1cc(Cc2n[nH]c(=O)c3ccccc23)ccc1F)N1CCN(C(=O)C2CC2)CC1 [Olaparib] (partner 8 µM)
relative viability (NCI-H2126; first compound 0.08 µM): 0.962 | relative viability (NCI-H2126; first compound 0.253 µM): 0.839 | relative viability (NCI-H2126; first compound 0.8 µM): 0.865 | relative viability (NCI-H2126; first compound 2.53 µM): 0.855 | relative viability (NCI-H1993; first compound 0.08 µM): 1.01 | relative viability (NCI-H1993; first compound 0.253 µM): 0.87 | relative viability (NCI-H1993; first compound 0.8 µM): 1.1 | relative viability (NCI-H1993; first compound 2.53 µM): 1.16 | relative viability (NCI-H2342; first compound 0.08 µM): 0.47 | relative viability (NCI-H2342; first compound 0.253 µM): 0.431 | relative viability (NCI-H2342; first compound 0.8 µM): 0.376 | relative viability (NCI-H2342; first compound 2.53 µM): 0.288 | relative viability (NCI-H2228; first compound 0.08 µM): 0.945 | relative viability (NCI-H2228; first compound 0.253 µM): 0.562 | relative viability (NCI-H2228; first compound 0.8 µM): 0.65 | relative viability (NCI-H2228; first compound 2.53 µM): 0.608 | relative viability (NCI-H2170; first compound 0.08 µM): 0.56 | relative viability (NCI-H2170; first compound 0.253 µM): 0.451 | relative viability (NCI-H2170; first compound 0.8 µM): 0.5 | relative viability (NCI-H2170; first compound 2.53 µM): 0.402 | relative viability (SK-LU-1; first compound 0.08 µM): 0.5 | relative viability (SK-LU-1; first compound 0.253 µM): 0.481 | relative viability (SK-LU-1; first compound 0.8 µM): 0.437 | relative viability (SK-LU-1; first compound 2.53 µM): 0.596 | relative viability (ChaGo-K-1; first compound 0.08 µM): 0.409 | relative viability (ChaGo-K-1; first compound 0.253 µM): 0.392 | relative viability (ChaGo-K-1; first compound 0.8 µM): 0.384 | relative viability (ChaGo-K-1; first compound 2.53 µM): 0.376 | relative viability (EPLC-272H; first compound 0.08 µM): 0.745 | relative viability (EPLC-272H; first compound 0.253 µM): 0.89 | relative viability (EPLC-272H; first compound 0.8 µM): 0.97 | relative viability (EPLC-272H; first compound 2.53 µM): 0.719 | relative viability (NCI-H2405; first compound 0.08 µM): 0.974 | relative viability (NCI-H2405; first compound 0.253 µM): 0.824 | relative viability (NCI-H2405; first compound 0.8 µM): 0.797 | relative viability (NCI-H2405; first compound 2.53 µM): 0.766 | relative viability (NCI-H1975; first compound 0.08 µM): 0.712 | relative viability (NCI-H1975; first compound 0.253 µM): 0.601 | relative viability (NCI-H1975; first compound 0.8 µM): 0.622 | relative viability (NCI-H1975; first compound 2.53 µM): 0.505 | relative viability (LCLC-103H; first compound 0.08 µM): 0.833 | relative viability (LCLC-103H; first compound 0.253 µM): 0.691 | relative viability (LCLC-103H; first compound 0.8 µM): 0.725 | relative viability (LCLC-103H; first compound 2.53 µM): 0.767 | relative viability (NCI-H460; first compound 0.08 µM): 0.58 | relative viability (NCI-H460; first compound 0.253 µM): 0.35 | relative viability (NCI-H460; first compound 0.8 µM): 0.395 | relative viability (NCI-H460; first compound 2.53 µM): 0.271 | relative viability (EMC-BAC-2; first compound 0.08 µM): 0.533 | relative viability (EMC-BAC-2; first compound 0.253 µM): 0.477 | relative viability (EMC-BAC-2; first compound 0.8 µM): 0.478 | relative viability (EMC-BAC-2; first compound 2.53 µM): 0.301 | relative viability (LCLC-97TM1; first compound 0.08 µM): 0.326 | relative viability (LCLC-97TM1; first compound 0.253 µM): 0.425 | relative viability (LCLC-97TM1; first compound 2.53 µM): 0.279 | relative viability (NCI-H1395; first compound 0.08 µM): 0.47 | relative viability (NCI-H1395; first compound 0.253 µM): 0.449 | relative viability (NCI-H1395; first compound 0.8 µM): 0.478 | relative viability (NCI-H1395; first compound 2.53 µM): 0.425 | relative viability (HOP-62; first compound 0.08 µM): 0.369 | relative viability (HOP-62; first compound 0.253 µM): 0.351 | relative viability (HOP-62; first compound 0.8 µM): 0.502 | relative viability (HOP-62; first compound 2.53 µM): 0.371 | relative viability (NCI-H647; first compound 0.08 µM): 0.734 | relative viability (NCI-H647; first compound 0.253 µM): 0.451 | relative viability (NCI-H647; first compound 0.8 µM): 0.506 | relative viability (NCI-H647; first compound 2.53 µM): 0.439 | relative viability (NCI-H322M; first compound 0.08 µM): 0.874 | relative viability (NCI-H322M; first compound 0.253 µM): 0.752 | relative viability (NCI-H322M; first compound 0.8 µM): 0.667 | relative viability (NCI-H322M; first compound 2.53 µM): 0.661 | relative viability (NCI-H3122; first compound 0.08 µM): 0.706 | relative viability (NCI-H3122; first compound 0.253 µM): 0.574 | relative viability (NCI-H3122; first compound 0.8 µM): 0.538 | relative viability (NCI-H3122; first compound 2.53 µM): 0.468 | relative viability (NCI-H2085; first compound 0.08 µM): 0.782 | relative viability (NCI-H2085; first compound 0.253 µM): 0.719 | relative viability (NCI-H2085; first compound 0.8 µM): 0.742 | relative viability (NCI-H2085; first compound 2.53 µM): 0.761 | relative viability (LOU-NH91; first compound 0.08 µM): 0.923 | relative viability (LOU-NH91; first compound 0.253 µM): 0.834 | relative viability (LOU-NH91; first compound 0.8 µM): 0.908 | relative viability (LOU-NH91; first compound 2.53 µM): 0.887 | relative viability (NCI-H520; first compound 0.08 µM): 0.375 | relative viability (NCI-H520; first compound 0.8 µM): 0.342 | relative viability (NCI-H520; first compound 2.53 µM): 0.356 | relative viability (HCC-44; first compound 0.08 µM): 0.935 | relative viability (HCC-44; first compound 0.253 µM): 0.904 | relative viability (HCC-44; first compound 0.8 µM): 0.958 | relative viability (HCC-44; first compound 2.53 µM): 0.866
